The target of this assay is T1, HIV-1 protease (Human immunodeficiency virus type 1 group M subtype B, UniProt P04585).
T1 construct: The protease (or proteinase), consisting of only 99 amino acids, is among the smallest enzymes known
Kind of assay: In vitro HIV protease inhibitory assay (HIV Protease FITC Assay). Type of assay: biochemical. The conditions noted are these: for Ki: read-out: HIV-1 FITC Ki. The gist of the method:
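Percent inhibition was read as fluorescence after avidin-bead capture and filtration separated FITC cleavage product from biotinylated substrate. Enzyme and substrate reacted 1 h, RT, dark, at pH 5.5 (0.1 M sodium acetate, 1.0 M NaCl, 0.05% NP-40).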

The mark [1] stands for this setting: HIV-1 Dose 0.123 uM, read-out: HIV-1 Protease % Inhib.
[2] abbreviates: HIV-1 Dose 0.370 uM, read-out: HIV-1 Protease % Inhib.
Where [3] appears, read: HIV-1 Dose 1.100 uM, read-out: HIV-1 Protease % Inhib.
The mark [4] stands for this setting: HIV-1 Dose 3.300 uM, read-out: HIV-1 Protease % Inhib.
The mark [5] stands for this setting: HIV-1 Dose 10.000 uM, read-out: HIV-1 Protease % Inhib.
[6] abbreviates: HIV-1 Dose 30.000 uM, read-out: HIV-1 Protease % Inhib.
The mark [7] stands for this setting: read-out: HIV-1 Protease % Inhib.

Like-named read-outs stand apart in the source and are kept apart here.

Turning to `O=c1oc(CCc2nnnn2C2CCCCC2)cc(O)c1C(c1ccccc1)C1CC1` (stereo not shown) [Example 119, 6-[2-(1-Cyclohexyl-1H-tetrazol-5-yl)-ethyl]-3-(cyclopropyl-phenyl-methyl)-4-hydroxy-2-one], the inhibition at 0.123 µM under setting [1] was under 10%. The inhibition at 0.37 µM under setting [2] is under 10%. The inhibition at 1.1 µM under setting [3] was under 10%. Besides, the inhibition at 3.3 µM under setting [4] was under 10%. Also, the inhibition at 10 µM under setting [5] amounted to 20.7%. The inhibition at 30 µM under setting [6] was 60.3%.
In the case of `CCC(C1=C(O)CC(Cc2ccccc2)(Cc2ccccc2)OC1=O)c1ccccc1` (stereo not shown) [Example 120, 6,6-Dibenzyl-4-hydroxy-3-(1-phenyl-propyl)-5,6-dihydro-pyran-2-one], the inhibition at 0.123 µM under setting [1] was under 10%. Further, the inhibition at 0.37 µM under setting [2] is under 10%. Besides, the inhibition at 1.1 µM under setting [3] stood at 10.1%. In addition, under setting [4], the inhibition at 3.3 µM turned out to be 26.2%. The inhibition at 10 µM under setting [5] stood at 46.4%. The inhibition at 30 µM under setting [6] came to 60.1%.
For `C=CC(C1=C(O)CC2(CCOCC2)OC1=O)c1ccccc1` (stereo not shown) [Example 121, 4-Hydroxy-3-(1-phenyl-allyl)-1,9-dioxa-spiro[5.5]undec-3-en-2-one], under setting [1], the inhibition at 0.123 µM was under 10%. The inhibition at 0.37 µM under setting [2] was under 10%. In addition, the inhibition at 1.1 µM under setting [3] is under 10%. In addition, under setting [4], the inhibition at 3.3 µM was 10.8%. Under setting [5], the inhibition at 10 µM stood at 40.2%. Moreover, the inhibition at 30 µM under setting [6] was found to be 68.5%.
For `Cc1cc(O)c(CC=Cc2ccccc2)c(=O)o1` [Example 122, 4-Hydroxy-6-methyl-3-(3-phenyl-prop-2-enyl)-2H-Pyran-2-one], for the setting “HIV-1 Dose 100.000 uM, read-out: HIV-1 Protease % Inhib”, the inhibition at 100 µM was 26%.
With `CCC(C1=C(O)CC2(CCC(=O)CC2)OC1=NO)c1ccccc1` (stereo not shown) [Example 123, 4-Hydroxy-3-(1-phenyl-propyl)-1-oxa-spiro[5.5]undec-3-ene-2,9-dione monooxime], the inhibition at 0.123 µM under setting [1] is under 10%. For the same compound, the inhibition at 0.37 µM under setting [2] was under 10%. In addition, the inhibition at 1.1 µM under setting [3] was under 10%. The inhibition at 3.3 µM under setting [4] is 14.8%. In addition, under setting [5], the inhibition at 10 µM was determined as 39.6%. Besides, the inhibition at 30 µM under setting [6] was 72%.
As to `CCC(Cc1ccccc1)c1cc(O)c(C2(c3ccccc3)CCC2)c(=O)o1` (stereo not shown) [Example 124, 4-Hydroxy-3-(1-phenylcyclobutyl)-6-[1-(phenylmethyl)propyl]-2H-pyran-2-one], the inhibition at 0.123 µM under setting [1] was under 10%. Under setting [2], the inhibition at 0.37 µM is under 10%. The inhibition at 1.1 µM under setting [3] was under 10%. In addition, the inhibition at 3.3 µM under setting [4] is 27.5%. Further, the inhibition at 10 µM under setting [5] stood at 53.4%. Moreover, the inhibition at 30 µM under setting [6] was found to be 64.8%.
Consider `C=CC(C1=C(O)CC2(CCCCCCC2)OC1=O)c1ccccc1` (stereo not shown) [Example 125, 4-Hydroxy-3-(1-phenyl-2-propenyl)-1-oxaspiro[5.7]tridec-3-en-2-one], for which the inhibition at 0.123 µM under setting [1] is under 10%. Also, the inhibition at 0.37 µM under setting [2] is under 10%. Moreover, under setting [3], the inhibition at 1.1 µM amounted to 15.4%. Under setting [4], the inhibition at 3.3 µM was determined as 45.7%. For the same compound, the inhibition at 10 µM under setting [5] worked out at 71%. Besides, the inhibition at 30 µM under setting [6] worked out at 89.7%.
For `CCC(C1=C(O)CC2(CCCCCCC2)OC1=O)c1ccccc1` (stereo not shown) [Example 126, 4-Hydroxy-3-(1-phenylpropyl)-1-oxaspiro[5.7]tridec-3-en-2-one], under setting [7], the inhibition at 0.123 µM is under 10%, the inhibition at 0.37 µM was under 10%, the inhibition at 1.1 µM turned out to be 13.2% and the inhibition at 3.3 µM is 42.9%. Under setting [7], the inhibition at 10 µM is 66.8% and the inhibition at 30 µM amounted to 81%.
For the compound `C=CC(C1=C(O)CC2(CCCCCC2)OC1=O)c1ccccc1` (stereo not shown) [Example 127, 4-Hydroxy-3-(1-phenylallyl)-1-oxa-spiro[5.6]-dodec-3-en-2-one], under setting [1], the inhibition at 0.123 µM was under 10%. Further, under setting [2], the inhibition at 0.37 µM amounted to 14.4%. The inhibition at 1.1 µM under setting [3] was determined as 38.4%. Further, under setting [4], the inhibition at 3.3 µM was 65.6%. Also, the inhibition at 10 µM under setting [5] was found to be 98.9%. The inhibition at 30 µM under setting [6] was 102%.
`C=CC(C1=C(O)CC2(CCCC2)OC1=O)c1ccccc1` (stereo not shown) [Example 128, 4-Hydroxy-3-(1-phenylallyl)-1-oxa-spiro[5.4]-dec-3-en-2-one]: under setting [1], the inhibition at 0.123 µM is under 10%. The inhibition at 0.37 µM under setting [2] was under 10%. Besides, the inhibition at 1.1 µM under setting [3] worked out at 18.5%. In addition, the inhibition at 3.3 µM under setting [4] was 46.8%. The inhibition at 10 µM under setting [5] was determined as 79.8%. Moreover, the inhibition at 30 µM under setting [6] was found to be 95.7%.
`C=CC(C1=C(O)CC2(CCCCC2Cc2ccccc2)OC1=O)c1ccccc1` (stereo not shown) [Example 129, 7-Benzyl-4-hydroxy-3-(1-phenylallyl)-1-oxa-spire[5.5]undec-3-en-2-one]: under setting [7], the inhibition at 0.123 µM was under 10%, the inhibition at 0.37 µM is under 10%, the inhibition at 1.1 µM was 43.5% and the inhibition at 3.3 µM worked out at 67.1%. Besides, under setting [7], the inhibition at 10 µM is 80.7% and the inhibition at 30 µM turned out to be 83.4%.
As for `CCC(C1=C(O)CC2(CCCC2)OC1=O)c1ccccc1` (stereo not shown) [Example 130, 4-Hydroxy-3-(1-phenylpropyl)-1-oxa-spiro[5.4]-dec-3-en-2-one], the inhibition at 0.123 µM under setting [1] was under 10%. The inhibition at 0.37 µM under setting [2] is under 10%. Under setting [3], the inhibition at 1.1 µM is under 10%. The inhibition at 3.3 µM under setting [4] was under 10%. For the same compound, the inhibition at 10 µM under setting [5] is under 10%. Besides, under setting [6], the inhibition at 30 µM came out at 13.1%.
As for `CCC(CCN1CCOCC1)c1cc(O)c(C(c2ccccc2)C2CC2)c(=O)o1` (stereo not shown) [Example 131, 3-(Cyclopropylphenylmethyl)-6-[1-ethyl-3-(4-morpholinyl)propyl]-4-hydroxy-2H-pyran-2-one], under setting [1], the inhibition at 0.123 µM is under 10%. In addition, the inhibition at 0.37 µM under setting [2] is under 10%. The inhibition at 1.1 µM under setting [3] was under 10%. Under setting [4], the inhibition at 3.3 µM is under 10%. Moreover, the inhibition at 10 µM under setting [5] turned out to be 13.2%. Besides, the inhibition at 30 µM under setting [6] is 45.9%.
As to `CCC(CC(=O)OCc1ccccc1)c1cc(O)c(C(c2ccccc2)C2CC2)c(=O)o1` (stereo not drawn) [Example 132, 3-(Cyclopropylphenylmethyl)-β-ethyl-4-hydroxy-2-oxo-, phenylmethyl ester 2H-pyran-6-propanoic acid], the inhibition at 0.123 µM under setting [1] was under 10%. Also, the inhibition at 0.37 µM under setting [2] is under 10%. The inhibition at 1.1 µM under setting [3] amounted to 29.1%. In addition, under setting [4], the inhibition at 3.3 µM is 70.2%. For the same compound, the inhibition at 10 µM under setting [5] stood at 87.6%. For the same compound, the inhibition at 30 µM under setting [6] came to 110%.
`CC(C)C(Cc1ccccc1)c1cc(O)c(C(c2ccccc2)C2CC2)c(=O)o1` (stereo not shown) [Example 133, 3-(Cyclopropylphenylmethyl)4-hydroxy-6-[2-methyl-1-(phenylmethyl)propyl]-2H-pyran-2-one]: the Ki turned out to be 40 nM. In addition, the inhibition at 0.123 µM under setting [1] came out at 20.6%. Moreover, the inhibition at 0.37 µM under setting [2] was determined as 49.6%. Moreover, the inhibition at 1.1 µM under setting [3] came to 74.3%. Besides, under setting [4], the inhibition at 3.3 µM worked out at 95.9%. Under setting [5], the inhibition at 10 µM was 110%. Further, the inhibition at 30 µM under setting [6] was determined as 102%.
On to `CC(C)C(CC1CCCOC1)c1cc(O)c(C(c2ccccc2)C2CC2)c(=O)o1` (stereo not shown) [Example 134, 3-(Cyclopropylphenylmethyl)-4-hydroxy-6-[2-methyl-1-[(tetrahydro-2H-pyran-3-yl)methyl]propyl]-2H-pyran-2-one], for which the Ki was determined as 24 nM. The inhibition at 0.123 µM under setting [1] was found to be 21.1%. For the same compound, the inhibition at 0.37 µM under setting [2] amounted to 57.5%. Also, the inhibition at 1.1 µM under setting [3] amounted to 83.1%. Further, the inhibition at 3.3 µM under setting [4] was 99.7%. For the same compound, the inhibition at 10 µM under setting [5] was 111%. For the same compound, the inhibition at 30 µM under setting [6] turned out to be 106%.
For the compound `CCC(CCC(F)(F)F)c1cc(O)c(C(c2ccccc2)C2CC2)c(=O)o1` (stereo not shown) [Example 136, 3-(Cyclopropylphenylmethyl)-6-(1-ethyl-4,4,4-trifluorobutyl)-4-hydroxy-2H-pyran-2-one], the Ki stood at 52 nM. Besides, the inhibition at 0.123 µM under setting [1] is under 10%. Besides, under setting [2], the inhibition at 0.37 µM came out at 24.5%. Besides, the inhibition at 1.1 µM under setting [3] worked out at 62.4%. Besides, the inhibition at 3.3 µM under setting [4] amounted to 91.3%. In addition, the inhibition at 10 µM under setting [5] came out at 99.1%. The inhibition at 30 µM under setting [6] amounted to 99.7%.
With `CCC(CC1CCCN(S(=O)(=O)c2ccc(C)cc2)C1)c1cc(O)c(C(c2ccccc2)C2CC2)c(=O)o1` (stereo not shown) [Example 137, 3-[2-[3-(Cyclopropylphenylmethyl)-4-hydroxy-2-oxo-2H-pyran-6-yl]butyl]-1-[(4-methylphenyl)sulfonyl]-piperidine], under setting [1], the inhibition at 0.123 µM is under 10%. Further, the inhibition at 0.37 µM under setting [2] is under 10%. Moreover, under setting [3], the inhibition at 1.1 µM was 23%. Also, the inhibition at 3.3 µM under setting [4] came out at 57.2%. Moreover, the inhibition at 10 µM under setting [5] is 80.2%. Also, under setting [6], the inhibition at 30 µM worked out at 79.7%.
Consider `CCC(CC1CCCN1S(=O)(=O)c1ccc(C)cc1)c1cc(O)c(C(c2ccccc2)C2CC2)c(=O)o1` (stereo not shown) [Example 138, 2-[2-[3-(Cyclopropylphenylmethyl)-4-hydroxy-2-oxo-2H-pyran-6-yl]butyl]-1-[(4-methylphenyl)sulfonyl]-pyrrolidine], for which the inhibition at 0.123 µM under setting [1] is under 10%. In addition, the inhibition at 0.37 µM under setting [2] was under 10%. Further, under setting [3], the inhibition at 1.1 µM came to 24.8%. Besides, the inhibition at 3.3 µM under setting [4] came out at 63.9%. Besides, under setting [5], the inhibition at 10 µM was found to be 83.3%. The inhibition at 30 µM under setting [6] stood at 81.1%.
`O=c1oc(CCC(F)(F)F)cc(O)c1C(c1ccccc1)C1CC1` (stereo not shown) [Example 139, 3-(Cyclopropylphenylmethyl)-4-hydroxy-6-(3,3,3-trifluoropropyl)-2H-pyran-2-one]: the inhibition at 0.123 µM under setting [1] was under 10%. In addition, under setting [2], the inhibition at 0.37 µM is under 10%. The inhibition at 1.1 µM under setting [3] was under 10%. Under setting [4], the inhibition at 3.3 µM amounted to 27.9%. The inhibition at 10 µM under setting [5] was determined as 58%. Moreover, the inhibition at 30 µM under setting [6] turned out to be 67.1%.

The Ki is the dissociation constant of the complex between target and ligand, obtained from inhibition or displacement.
